pIC50: −log10 of the molar value. A value given as a limit tells only on which side of the number the result lay.

Series [1] in a line: Growth inhibition of human HT-29 cells after 48 hrs by MTT assay. Type of series: functional, cell-based. The conditions noted are these: HT-29, 48 h. Background: Tetrazolium assays rely on reduction of a dye to a coloured formazan, in cell work by metabolically active cells.
The nature of series [2]: Growth inhibition of human MDA-MB-231 cells after 48 hrs by MTT assay. Type of series: functional, cell-based. The conditions noted are these: MDA-MB-231, 48 h.
Another series relates to HT-29. In words: Potency index, ratio of resveratrol IC50 to compound IC50 for human HT-29 cells. Type of series: functional.
The next series has as its system Mus musculus. In words: Toxicity in Kunming mouse implanted with mouse 4T1 cells assessed as body weight loss at 1 mg/kg, ip administered once in 4 days for 14 days measured during compound dosing. Format: organism-based. To be noted: in vivo.

With `COc1cc(/C=C/c2ccc(NC(=O)/C=C/c3ccc(F)cc3)cc2)cc(OC)c1`, the figures for the pIC50 in series [1] and in series [2] were 4.94 and 5.03, respectively.
As to `COc1cc(/C=C/c2ccc(NC(=O)/C=C/c3cccc(F)c3)cc2)cc(OC)c1`, the pIC50 – broadly, the negative decadic logarithm of the IC50, by convention in mol/L – is 4.78 in series [1] and 4.76 in series [2].
Turning to `COc1cc(/C=C/c2ccc(NC(=O)/C=C/c3ccc(Cl)cc3)cc2)cc(OC)c1`, the pIC50 in series [1] is 4.99; in series [2], 4.85.
For `COc1cc(/C=C/c2ccc(NC(=O)/C=C/c3ccccc3F)cc2)cc(OC)c1` the same measures were 5.55 and 5.62.
The like results for `COc1ccc(/C=C/C(=O)Nc2ccc(/C=C/c3cc(OC)cc(OC)c3)cc2)cc1` were, in that order, 5.22 and 5.37.
Take `COc1cc(/C=C/c2ccc(NC(=O)/C=C/c3cc(OC)c(O)c(OC)c3)cc2)cc(OC)c1`: the pIC50 in series [1] was 5.51; in series [2] it was 5.15.
The like results for `COc1cc(/C=C/c2ccc(NC(=O)/C=C/c3ccc(C#N)cc3)cc2)cc(OC)c1` were, in that order, 5.48 and 5.11.
`COc1cc(/C=C/c2ccc(OC(=O)/C=C/c3cc(OC)c(OC)c(OC)c3)cc2)cc(OC)c1`: the pIC50 was 5.54 in series [1] and 5.51 in series [2].
For `COc1cc(/C=C/c2ccc(OC(=O)/C=C/c3ccc(F)cc3)cc2)cc(OC)c1` the same measures were 5.11 and 5.21.
Regarding `COc1cc(/C=C/c2ccc(NC(=O)/C=C/c3ccccn3)cc2)cc(OC)c1`, the pIC50 in series [1] was 5.21; in series [2], 5.47.
As to `COc1cc(/C=C/c2ccc(NC(=O)/C=C/c3ccc(Br)cc3)cc2)cc(OC)c1`, the results for the pIC50 in series [1] and in series [2] were 5.28 and 5.21, respectively.
Regarding `COc1cc(/C=C/c2ccc(NC(=O)/C=C/c3ccc([N+](=O)[O-])cc3)cc2)cc(OC)c1`, the pIC50 is 4.97 in series [1] and 4.93 in series [2].
For `COc1cc(/C=C/c2ccc(NC(=O)/C=C/c3ccccc3)cc2)cc(OC)c1`, the values for the negative-log IC50 (pIC50) in series [1] and in series [2] were 5.76 and 5.70, respectively.
Turning to `COc1cc(/C=C/c2ccc(NC(=O)/C=C/c3ccc(OC)c(OC)c3)cc2)cc(OC)c1`, the values for the pIC50 in series [1] and in series [2] were 6.02 and 5.11, respectively. The “Ratio IC50” value with HT-29 is listed as over 50.
Consider `COc1cc(/C=C/c2ccc(NC(=O)/C=C/c3ccc(C(F)(F)F)cc3)cc2)cc(OC)c1`, for which the negative-log IC50 (pIC50) in series [1] was 5.75; in series [2], 5.45.
The like results for `COc1cc(/C=C/c2ccc(NC(=O)/C=C/c3ccc(F)cc3F)cc2)cc(OC)c1` were, in that order, 4.74 and under 4.70.
The like results for `O=C(O)/C=C/c1ccc(O)c(O)c1` [CAFFEIC ACID] were, in that order, under 4.00 and under 4.00.
For `COc1cc(/C=C/c2ccc(NC(=O)/C=C/c3ccc(O)c(O)c3)cc2)cc(OC)c1` the same measures were 5.81 and 5.37.
In the case of `COc1cc(/C=C/c2ccc(OC(=O)/C=C/c3ccc(C(F)(F)F)cc3)cc2)cc(OC)c1`, the pIC50 in series [1] is 5.04; in series [2], 5.16.
As to `COc1cccc2c1C(=O)c1c(O)c3c(c(O)c1C2=O)C[C@@](O)(C(=O)CO)C[C@@H]3O[C@H]1C[C@H](N)[C@H](O)[C@H](C)O1` [DOXORUBICIN], the Activity entry in the series with Mus musculus is on record as “Toxic”.
For `COc1cc(/C=C/c2ccc(OC(=O)/C=C/c3ccccc3)cc2)cc(OC)c1`, the pIC50 in series [1] was 5.04; in series [2], 5.01.
The like results for `COc1cc(/C=C/c2ccc(OC(=O)/C=C/c3ccc([N+](=O)[O-])cc3)cc2)cc(OC)c1` were, in that order, under 4.70 and 4.74.
Consider `Oc1ccc(/C=C/c2cc(O)cc(O)c2)cc1` [RESVERATROL], for which the pIC50 in series [1] and in series [2] was under 4.00 in each case.
